In patent US9642831B2, “Substituted chromanes and method of use” (AbbVie S.á.r.l., priority 2014, dated 2017):
pEC50: −log10 of the molar value.

Molecular target: F508delCFTR (Homo sapiens, UniProt P13569, DEL508-508)
Experiment: Cell Surface Expression-Horse Radish Peroxidase (CSE-HRP) assay
Type: cell-based
Set-up: expressed in transfected cells; host or cells: CFBE41o- human lung derived epithelial cell line, doxycycline-inducible
Conditions: CFBE4lo-F508delCFTR-HRP cells; for pEC50: 18-24 hours at 33° C., 8-point curve, highest concentration 20 μM, luminescence readout; for Emax: maximum % activity at any tested concentration, normalized to on-plate positive control (3 μM Example 1)
How it was run: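 Following 18-24 h compound exposure at 33° C. Expression was doxycycline-induced beforehand. % activity versus DMSO and a 3 μM corrector control gave maximum activity and EC50 from a variable-Hill sigmoidal fit.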

Sequence of F508delCFTR (P13569 with tags, fused parts or gaps DEL508-508): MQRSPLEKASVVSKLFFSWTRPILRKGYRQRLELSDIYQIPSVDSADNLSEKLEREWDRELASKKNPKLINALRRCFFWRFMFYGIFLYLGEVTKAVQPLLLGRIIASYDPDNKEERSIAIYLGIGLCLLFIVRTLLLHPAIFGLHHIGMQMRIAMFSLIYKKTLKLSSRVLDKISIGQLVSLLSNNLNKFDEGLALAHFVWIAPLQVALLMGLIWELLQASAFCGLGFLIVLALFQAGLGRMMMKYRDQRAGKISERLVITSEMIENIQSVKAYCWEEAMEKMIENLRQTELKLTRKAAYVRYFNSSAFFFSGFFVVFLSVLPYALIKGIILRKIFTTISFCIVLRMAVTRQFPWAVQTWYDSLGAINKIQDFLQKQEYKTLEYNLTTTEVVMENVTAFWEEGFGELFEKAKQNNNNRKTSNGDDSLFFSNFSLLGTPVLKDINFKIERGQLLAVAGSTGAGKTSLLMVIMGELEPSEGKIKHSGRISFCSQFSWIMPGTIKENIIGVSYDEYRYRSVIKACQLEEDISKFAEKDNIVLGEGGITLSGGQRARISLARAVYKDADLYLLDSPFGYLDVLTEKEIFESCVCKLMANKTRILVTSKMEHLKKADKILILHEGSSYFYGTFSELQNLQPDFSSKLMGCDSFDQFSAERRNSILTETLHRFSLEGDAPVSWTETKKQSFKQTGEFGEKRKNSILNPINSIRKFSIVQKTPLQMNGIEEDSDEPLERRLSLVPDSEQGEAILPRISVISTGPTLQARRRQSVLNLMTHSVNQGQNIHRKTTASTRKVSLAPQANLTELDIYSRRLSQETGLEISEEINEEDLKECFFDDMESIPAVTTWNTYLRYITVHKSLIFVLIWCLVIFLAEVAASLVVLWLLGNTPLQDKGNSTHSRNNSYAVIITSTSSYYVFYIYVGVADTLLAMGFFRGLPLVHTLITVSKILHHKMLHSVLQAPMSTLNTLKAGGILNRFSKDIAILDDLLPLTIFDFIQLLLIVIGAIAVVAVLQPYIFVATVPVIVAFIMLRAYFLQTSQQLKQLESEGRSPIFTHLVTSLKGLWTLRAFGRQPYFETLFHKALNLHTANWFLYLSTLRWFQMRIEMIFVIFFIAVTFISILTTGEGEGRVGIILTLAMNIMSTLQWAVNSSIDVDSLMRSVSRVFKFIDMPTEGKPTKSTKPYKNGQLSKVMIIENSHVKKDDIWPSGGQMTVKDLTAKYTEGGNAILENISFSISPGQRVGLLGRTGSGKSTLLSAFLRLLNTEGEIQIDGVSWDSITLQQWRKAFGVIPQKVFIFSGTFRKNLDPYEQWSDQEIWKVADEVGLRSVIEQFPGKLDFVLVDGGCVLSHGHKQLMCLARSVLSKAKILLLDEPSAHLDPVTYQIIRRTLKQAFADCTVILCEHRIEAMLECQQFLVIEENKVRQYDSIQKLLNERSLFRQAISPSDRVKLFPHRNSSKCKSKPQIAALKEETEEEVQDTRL

Row | Compound | pEC50 | Emax [%]
1 | O=C(NC1CC(c2ccccc2Cl)Oc2ccccc21)C1(c2ccc3c(c2)OC(F)(F)O3)CC1 (stereo not drawn) [Example 65, N-[2-(2-chlorophenyl)-3,4-dihydro-2H-chromen-4-yl]-1-(2,2-difluoro-1,3-benzodioxol-5-yl)cyclopropanecarboxamide] | 5.00 | 45
2 | O=C(NC1CC(c2ccccc2)Oc2ccccc21)C1(c2ccc3c(c2)OC(F)(F)O3)CC1 (stereo not drawn) [Example 67, 1-(2,2-difluoro-1,3-benzodioxol-5-yl)-N-(2-phenyl-3,4-dihydro-2H-chromen-4-yl)cyclopropanecarboxamide] | 5.23 | 128
3 | O=C(NC1CC(c2cccc(Cl)c2)Oc2ccccc21)C1(c2ccc3c(c2)OC(F)(F)O3)CC1 (stereo not drawn) [Example 70, N-[2-(3-chlorophenyl)-3,4-dihydro-2H-chromen-4-yl]-1-(2,2-difluoro-1,3-benzodioxol-5-yl)cyclopropanecarboxamide] | 5.16 | 94
4 | O=C(NC1CC(c2ccc(F)cc2)Oc2ccccc21)C1(c2ccc3c(c2)OC(F)(F)O3)CC1 (stereo not drawn) [Example 71, 1-(2,2-difluoro-1,3-benzodioxol-5-yl)-N-[2-(4-fluorophenyl)-3,4-dihydro-2H-chromen-4-yl]cyclopropanecarboxamide] | 5.55 | 91
5 | O=C(N[C@@H]1CC(CF)(CF)Oc2ccccc21)C1(c2ccc3c(c2)OC(F)(F)O3)CC1 [Example 75, N-[(4R)-2,2-bis(fluoromethyl)-3,4-dihydro-2H-chromen-4-yl]-1-(2,2-difluoro-1,3-benzodioxol-5-yl)cyclopropanecarboxamide] | 5.48 | 75
6 | O=C(N[C@@H]1CC(CF)(CF)Oc2cc(F)ccc21)C1(c2ccc3c(c2)OC(F)(F)O3)CC1 [Example 79, 1-(2,2-difluoro-1,3-benzodioxol-5-yl)-N-[(4R)-7-fluoro-2,2-bis(fluoromethyl)-3,4-dihydro-2H-chromen-4-yl]cyclopropanecarboxamide] | 5.14 | 117
7 | C[C@]1(C(F)F)C[C@@H](NC(=O)C2(c3ccc4c(c3)OC(F)(F)O4)CC2)c2ccc(Cl)cc2O1 [Example 84, N-[(2R,4R)-7-chloro-2-(difluoromethyl)-2-methyl-3,4-dihydro-2H-chromen-4-yl]-1-(2,2-difluoro-1,3-benzodioxol-5-yl)cyclopropanecarboxamide] | 5.65 | 91
8 | C[C@@]1(C(F)(F)F)C[C@@H](NC(=O)C2(c3ccc4c(c3)OC(F)(F)O4)CC2)c2ccccc2O1 [Example 85, 1-(2,2-difluoro-1,3-benzodioxol-5-yl)-N-[(2S,4R)-2-methyl-2-(trifluoromethyl)-3,4-dihydro-2H-chromen-4-yl]cyclopropanecarboxamide] | 5.17 | 108
9 | COc1ccc2c(c1)OCC(Cc1ccc(OC)c(OC)c1)C2NC(=O)C1(c2ccc3c(c2)OC(F)(F)O3)CC1 (stereo not drawn) [Example 91, 1-(2,2-difluoro-1,3-benzodioxol-5-yl)-N-[3-(3,4-dimethoxybenzyl)-7-methoxy-3,4-dihydro-2H-chromen-4-yl]cyclopropanecarboxamide] | 5.57 | 82
10 | CC(C)(C)OC(=O)N1CCC2(CC1)CC(NC(=O)C1(c3ccc4c(c3)OC(F)(F)O4)CC1)c1ccc(F)cc1O2 (stereo not drawn) [Example 92, tert-butyl 4-({[1-(2,2-difluoro-1,3-benzodioxol-5-yl)cyclopropyl]carbonyl}amino)-7-fluoro-3,4-dihydro-1′H-spiro[chromene-2,4′-piperidine]-1′-carboxylate] | 5.59 | 71
11 | O=C(NC1CC2(CCNCC2)Oc2cc(F)ccc21)C1(c2ccc3c(c2)OC(F)(F)O3)CC1 (stereo not drawn) [Example 93, 1-(2,2-difluoro-1,3-benzodioxol-5-yl)-N-(7-fluoro-3,4-dihydrospiro[chromene-2,4′-piperidin]-4-yl)cyclopropanecarboxamide] | 5.55 | 26

The remaining lines, values ahead:

Row | pEC50 | Emax [%] | Compound
12 | 5.79 | 78 | O=C(NC1CC(c2ccc(C(F)(F)F)cc2)Oc2ccccc21)C1(c2ccc3c(c2)OC(F)(F)O3)CC1 (stereo not drawn) [Example 64, 1-(2,2-difluoro-1,3-benzodioxol-5-yl)-N-{2-[4-(trifluoromethyl)phenyl]-3,4-dihydro-2H-chromen-4-yl}cyclopropanecarboxamide]
13 | 6.06 | 89 | O=C(NC1CC(c2ccc(Cl)cc2)Oc2ccccc21)C1(c2ccc3c(c2)OC(F)(F)O3)CC1 (stereo not drawn) [Example 68, N-[2-(4-chlorophenyl)-3,4-dihydro-2H-chromen-4-yl]-1-(2,2-difluoro-1,3-benzodioxol-5-yl)cyclopropanecarboxamide]
14 | 5.67 | 109 | COc1ccc(C2CC(NC(=O)C3(c4ccc5c(c4)OC(F)(F)O5)CC3)c3ccccc3O2)cc1OC (stereo not drawn) [Example 69, 1-(2,2-difluoro-1,3-benzodioxol-5-yl)-N-[2-(3,4-dimethoxyphenyl)-3,4-dihydro-2H-chromen-4-yl]cyclopropanecarboxamide]
15 | 5.60 | 71 | COc1ccc2c(c1)C(NC(=O)C1(c3ccc4c(c3)OC(F)(F)O4)CC1)C(Cc1ccc(OC)c(OC)c1)CO2 (stereo not drawn) [Example 72, 1-(2,2-difluoro-1,3-benzodioxol-5-yl)-N-[3-(3,4-dimethoxybenzyl)-6-methoxy-3,4-dihydro-2H-chromen-4-yl]cyclopropanecarboxamide]
16 | 5.12 | 57 | O=C(NC1c2ccccc2OCC1Cc1ccccc1)C1(c2ccc3c(c2)OC(F)(F)O3)CC1 (stereo not drawn) [Example 73, N-(3-benzyl-3,4-dihydro-2H-chromen-4-yl)-1-(2,2-difluoro-1,3-benzodioxol-5-yl)cyclopropanecarboxamide]
17 | 5.26 | 98 | CCC1(CC)C[C@@H](NC(=O)C2(c3ccc4c(c3)OC(F)(F)O4)CC2)c2ccccc2O1 [Example 74, N-[(4R)-2,2-diethyl-3,4-dihydro-2H-chromen-4-yl]-1-(2,2-difluoro-1,3-benzodioxol-5-yl)cyclopropanecarboxamide]
18 | 5.52 | 105 | CC1(C)C[C@@H](NC(=O)C2(c3ccc4c(c3)OC(F)(F)O4)CC2)c2ccc(Cl)cc2O1 [Example 76, N-[(4R)-7-chloro-2,2-dimethyl-3,4-dihydro-2H-chromen-4-yl]-1-(2,2-difluoro-1,3-benzodioxol-5-yl)cyclopropanecarboxamide]
19 | 5.28 | 95 | O=C(N[C@@H]1CC2(CCCC2)Oc2ccccc21)C1(c2ccc3c(c2)OC(F)(F)O3)CC1 [Example 78, 1-(2,2-difluoro-1,3-benzodioxol-5-yl)-N-[(4R)-3,4-dihydrospiro[chromene-2,1′-cyclopentan]-4-yl]cyclopropanecarboxamide]
20 | 5.81 | 114 | C[C@@]1(CF)C[C@@H](NC(=O)C2(c3ccc4c(c3)OC(F)(F)O4)CC2)c2ccc(C(F)(F)F)cc2O1 [Example 80, 1-(2,2-difluoro-1,3-benzodioxol-5-yl)-N-[(2S,4R)-2-(fluoromethyl)-2-methyl-7-(trifluoromethyl)-3,4-dihydro-2H-chromen-4-yl]cyclopropanecarboxamide]
21 | 5.35 | 98 | C[C@]1(C(F)F)C[C@@H](NC(=O)C2(c3ccc4c(c3)OC(F)(F)O4)CC2)c2ccccc2O1 [Example 81, 1-(2,2-difluoro-1,3-benzodioxol-5-yl)-N-[(2R,4R)-2-(difluoromethyl)-2-methyl-3,4-dihydro-2H-chromen-4-yl]cyclopropanecarboxamide]
22 | 5.57 | 97 | C[C@@]1(C(F)F)C[C@@H](NC(=O)C2(c3ccc4c(c3)OC(F)(F)O4)CC2)c2ccccc2O1 [Example 82, 1-(2,2-difluoro-1,3-benzodioxol-5-yl)-N-[(2S,4R)-2-(difluoromethyl)-2-methyl-3,4-dihydro-2H-chromen-4-yl]cyclopropanecarboxamide]
23 | 5.57 | 106 | C[C@@]1(C(F)F)C[C@@H](NC(=O)C2(c3ccc4c(c3)OC(F)(F)O4)CC2)c2ccc(Cl)cc2O1 [Example 83, N-[(2S,4R)-7-chloro-2-(difluoromethyl)-2-methyl-3,4-dihydro-2H-chromen-4-yl]-1-(2,2-difluoro-1,3-benzodioxol-5-yl)cyclopropanecarboxamide]
24 | 5.46 | 101 | CC1(C)C[C@@H](NC(=O)C2(c3ccc4c(c3)OC(F)(F)O4)CC2)c2ccc(F)cc2O1 [Example 86, 1-(2,2-difluoro-1,3-benzodioxol-5-yl)-N-[(4R)-7-fluoro-2,2-dimethyl-3,4-dihydro-2H-chromen-4-yl]cyclopropanecarboxamide]
25 | 5.33 | 146 | O=C(N[C@@H]1CC(CF)(CF)Oc2cc(Cl)ccc21)C1(c2ccc3c(c2)OC(F)(F)O3)CC1 [Example 87, N-[(4R)-7-chloro-2,2-bis(fluoromethyl)-3,4-dihydro-2H-chromen-4-yl]-1-(2,2-difluoro-1,3-benzodioxol-5-yl)cyclopropanecarboxamide]
26 | 5.46 | 42 | CC1(C)C[C@@H](NC(=O)C2(c3ccc4c(c3)OC(F)(F)O4)CC2)c2ccc(F)c(Cl)c2O1 [Example 90, N-[(4R)-8-chloro-7-fluoro-2,2-dimethyl-3,4-dihydro-2H-chromen-4-yl]-1-(2,2-difluoro-1,3-benzodioxol-5-yl)cyclopropanecarboxamide]
27 | 6.03 | 119 | COCCOc1ccc2c(c1)O[C@@H](c1cccc(C(=O)OC)c1)C[C@H]2NC(=O)C1(c2ccc3c(c2)OC(F)(F)O3)CC1 [Example 94, methyl 3-[(2R,4R)-4-({[1-(2,2-difluoro-1,3-benzodioxol-5-yl)cyclopropyl]carbonyl}amino)-7-(2-methoxyethoxy)-3,4-dihydro-2H-chromen-2-yl]benzoate]
